Experimental findings from patent US9732075B2, “Benzimidazole-proline derivatives” (IDORSIA PHARMACEUTICALS LTD, priority 2012, dated 2017) are described below.

The target of one assay is human orexin-2 receptor (Homo sapiens (Human), UniProt O43614). The assay can be described thus: In vitro assay: intracellular calcium measurements (FLIPR), antagonistic activity. The class given is cell-based. The note with it: CHO cells expressing human orexin-2 receptor, orexin-A agonist, geometric mean, read-out: IC50 Ox2. In outline:
(§1)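 Dye-loaded CHO cells expressing either human orexin receptor are exposed to test antagonist for 120 min, then stimulated with orexin-A at 3 nM.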
(A change in cytosolic calcium serves as a functional read-out for many receptors and channels.)

The target of another assay is human orexin-1 receptor (Homo sapiens (Human), UniProt O43613). The description is as above. The class given is cell-based. The conditions noted are these: CHO cells expressing human orexin-1 receptor, orexin-A agonist, geometric mean, read-out: IC50 Ox1. In outline:
as §1

Sequence of human orexin-1 receptor (O43613 whole entry): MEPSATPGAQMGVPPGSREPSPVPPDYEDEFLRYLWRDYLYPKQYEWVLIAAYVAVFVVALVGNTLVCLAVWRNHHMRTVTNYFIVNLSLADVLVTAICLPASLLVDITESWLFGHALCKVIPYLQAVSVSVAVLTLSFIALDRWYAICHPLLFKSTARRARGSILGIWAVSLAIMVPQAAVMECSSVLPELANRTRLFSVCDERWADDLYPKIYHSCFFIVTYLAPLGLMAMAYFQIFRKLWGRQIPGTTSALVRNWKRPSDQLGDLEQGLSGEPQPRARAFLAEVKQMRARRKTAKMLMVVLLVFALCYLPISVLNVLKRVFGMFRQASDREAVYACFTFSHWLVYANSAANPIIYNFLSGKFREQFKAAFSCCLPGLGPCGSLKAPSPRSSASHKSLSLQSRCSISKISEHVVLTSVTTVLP
Sequence of human orexin-2 receptor (O43614 whole entry): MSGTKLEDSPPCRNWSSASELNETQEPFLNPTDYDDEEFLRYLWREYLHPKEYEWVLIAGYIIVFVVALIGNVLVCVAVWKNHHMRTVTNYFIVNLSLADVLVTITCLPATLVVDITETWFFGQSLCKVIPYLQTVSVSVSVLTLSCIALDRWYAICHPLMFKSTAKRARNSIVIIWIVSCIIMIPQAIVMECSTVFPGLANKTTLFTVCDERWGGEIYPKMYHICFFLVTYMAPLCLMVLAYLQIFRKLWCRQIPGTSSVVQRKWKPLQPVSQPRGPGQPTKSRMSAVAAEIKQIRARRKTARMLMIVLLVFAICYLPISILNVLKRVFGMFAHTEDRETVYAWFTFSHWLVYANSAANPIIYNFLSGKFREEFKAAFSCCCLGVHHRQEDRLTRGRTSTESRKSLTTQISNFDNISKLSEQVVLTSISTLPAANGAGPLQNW

Consider `COc1cc2nc([C@]3(C)CCCN3C(=O)c3ccccc3-c3cccc(C)c3)[nH]c2cc1OC` [Ex. 5.87], for which the figures for the IC50 at human orexin-2 receptor and at human orexin-1 receptor were 157 nM and 203 nM, respectively.
For `COc1cc2nc([C@]3(C)CCCN3C(=O)c3ccccc3-c3ccc(C)cc3)[nH]c2cc1OC` [Ex. 5.88] the same measures were 166 nM and 192 nM.
On the same counts, the results for `COc1cc2nc([C@]3(C)CCCN3C(=O)c3cnc(C)nc3-c3cccc(C)c3)[nH]c2cc1OC` [Ex. 5.89] are 119 nM and 148 nM.
For `COc1cc2nc([C@]3(C)CCCN3C(=O)c3cncnc3-c3ccccc3)[nH]c2cc1OC` [Ex. 5.90] the same measures were 473 nM and 232 nM.
For `Cc1ccc(-c2ccc(F)cc2C)c(C(=O)N2CCC[C@@]2(C)c2nc3cc(C)c(C)cc3[nH]2)c1` [Ex. 5.91], the IC50 at human orexin-2 receptor is 1290 nM; at human orexin-1 receptor, 217 nM.
On the same counts, the results for `COc1ccccc1-c1ccc(C)cc1C(=O)N1CCC[C@@]1(C)c1nc2cc(C)c(C)cc2[nH]1` [Ex. 5.92] are 177 nM and 62 nM.
On the same counts, the results for `COc1cccc(-c2ccc(C)cc2C(=O)N2CCC[C@@]2(C)c2nc3cc(C)c(C)cc3[nH]2)c1` [Ex. 5.93] are 19 nM and 15 nM.
For `COc1ccc(-c2ccc(C)cc2C(=O)N2CCC[C@@]2(C)c2nc3cc(C)c(C)cc3[nH]2)cc1` [Ex. 5.94] the same measures were 37 nM and 14 nM.
For the molecule `Cc1ccc(-c2ccccc2F)c(C(=O)N2CCC[C@@]2(C)c2nc3cc(C)c(C)cc3[nH]2)c1` [Ex. 5.95], the IC50 was 29 nM on human orexin-2 receptor and 11 nM on human orexin-1 receptor.
For `Cc1ccc(-c2ccc(F)cc2)c(C(=O)N2CCC[C@@]2(C)c2nc3cc(C)c(C)cc3[nH]2)c1` [Ex. 5.96] the same measures were 32 nM and 13 nM.
As for `Cc1ccc(-c2cccc(F)c2)c(C(=O)N2CCC[C@@]2(C)c2nc3cc(C)c(C)cc3[nH]2)c1` [Ex. 5.97], the IC50 on human orexin-2 receptor was 11 nM; at human orexin-1 receptor it was 6 nM.
For `Cc1ccc(-c2ccccc2C)c(C(=O)N2CCC[C@@]2(C)c2nc3cc(C)c(C)cc3[nH]2)c1` [Ex. 5.98] the same measures were 264 nM and 120 nM.
On the same counts, the results for `Cc1cccc(-c2ccc(C)cc2C(=O)N2CCC[C@@]2(C)c2nc3cc(C)c(C)cc3[nH]2)c1` [Ex. 5.99] are 11 nM and 6 nM.
For `Cc1ccc(-c2ccc(C)cc2C(=O)N2CCC[C@@]2(C)c2nc3cc(C)c(C)cc3[nH]2)cc1` [Ex. 5.100] the same measures were 27 nM and 17 nM.
As for `COc1cccc(-c2ccccc2C(=O)N2CCC[C@@]2(C)c2nc3cc(C)c(C)cc3[nH]2)c1` [Ex. 5.101], the IC50 on human orexin-2 receptor came to 54 nM; at human orexin-1 receptor it was 59 nM.
For the molecule `COc1ccc(-c2ccccc2C(=O)N2CCC[C@@]2(C)c2nc3cc(C)c(C)cc3[nH]2)cc1` [Ex. 5.102], the IC50 at human orexin-2 receptor was found to be 82 nM; at human orexin-1 receptor it was 34 nM.
For `Cc1cc2nc([C@]3(C)CCCN3C(=O)c3ccccc3-c3ccccc3F)[nH]c2cc1C` [Ex. 5.103] the same measures were 70 nM and 46 nM.
On to `Cc1cc2nc([C@]3(C)CCCN3C(=O)c3ccccc3-c3ccc(F)cc3)[nH]c2cc1C` [Ex. 5.104], for which the IC50 on human orexin-2 receptor was found to be 97 nM; at human orexin-1 receptor, 92 nM.
On the same counts, the results for `Cc1cc2nc([C@]3(C)CCCN3C(=O)c3ccccc3-c3cccc(F)c3)[nH]c2cc1C` [Ex. 5.105] are 28 nM and 24 nM.
Regarding `Cc1cccc(-c2ccccc2C(=O)N2CCC[C@@]2(C)c2nc3cc(C)c(C)cc3[nH]2)c1` [Ex. 5.106], the results for the IC50 at human orexin-2 receptor and at human orexin-1 receptor were 37 nM and 25 nM, respectively.
For `Cc1ccc(-c2ccccc2C(=O)N2CCC[C@@]2(C)c2nc3cc(C)c(C)cc3[nH]2)cc1` [Ex. 5.107] the same measures were 53 nM and 58 nM.
For `Cc1ccc(-c2ccc(F)cc2C)c(C(=O)N2CCC[C@@]2(C)c2nc3c(C)c(C)ccc3[nH]2)c1` [Ex. 5.108] the same measures were 161 nM and 265 nM.
On the same counts, the results for `Cc1ccc(-c2cccc(F)c2)c(C(=O)N2CCC[C@@]2(C)c2nc3c(C)c(C)ccc3[nH]2)c1` [Ex. 5.109] are 4 nM and 3 nM.
`COc1cccc(-c2ccc(C)cc2C(=O)N2CCC[C@@]2(C)c2nc3c(C)c(C)ccc3[nH]2)c1` [Ex. 5.110]: the IC50 on human orexin-2 receptor is 14 nM; on human orexin-1 receptor, 13 nM.
On the same counts, the results for `Cc1cccc(-c2ccc(C)cc2C(=O)N2CCC[C@@]2(C)c2nc3c(C)c(C)ccc3[nH]2)c1` [Ex. 5.111] are 7 nM and 5 nM.
For `COc1ccc(-c2ccc(C)cc2C(=O)N2CCC[C@@]2(C)c2nc3c(C)c(C)ccc3[nH]2)cc1` [Ex. 5.112] the same measures were 16 nM and 12 nM.
Consider `Cc1ccc(-c2ccc(C)cc2C(=O)N2CCC[C@@]2(C)c2nc3c(C)c(C)ccc3[nH]2)cc1` [Ex. 5.113], for which the figures for the IC50 on human orexin-2 receptor and at human orexin-1 receptor were 15 nM and 12 nM, respectively.
For `Cc1ccc(-c2ccccc2F)c(C(=O)N2CCC[C@@]2(C)c2nc3c(C)c(C)ccc3[nH]2)c1` [Ex. 5.114], the IC50 on human orexin-2 receptor worked out at 21 nM; on human orexin-1 receptor, 10 nM.
For `Cc1ccc(-c2ccc(F)cc2)c(C(=O)N2CCC[C@@]2(C)c2nc3c(C)c(C)ccc3[nH]2)c1` [Ex. 5.115] the same measures were 18 nM and 22 nM.
Regarding `Cc1ccc2[nH]c([C@]3(C)CCCN3C(=O)c3ccccc3-c3cccc(F)c3)nc2c1C` [Ex. 5.116], the IC50 came out at 19 nM at human orexin-2 receptor and 39 nM on human orexin-1 receptor.
On the same counts, the results for `COc1cccc(-c2ccccc2C(=O)N2CCC[C@@]2(C)c2nc3c(C)c(C)ccc3[nH]2)c1` [Ex. 5.117] are 38 nM and 57 nM.
On the same counts, the results for `Cc1cccc(-c2ccccc2C(=O)N2CCC[C@@]2(C)c2nc3c(C)c(C)ccc3[nH]2)c1` [Ex. 5.118] are 35 nM and 25 nM.
On the same counts, the results for `COc1ccc(-c2ccccc2C(=O)N2CCC[C@@]2(C)c2nc3c(C)c(C)ccc3[nH]2)cc1` [Ex. 5.119] are 29 nM and 30 nM.
Consider `Cc1ccc(-c2ccccc2C(=O)N2CCC[C@@]2(C)c2nc3c(C)c(C)ccc3[nH]2)cc1` [Ex. 5.120], for which the IC50 was 26 nM at human orexin-2 receptor and 48 nM on human orexin-1 receptor.
On the same counts, the results for `Cc1ccc2[nH]c([C@]3(C)CCCN3C(=O)c3ccccc3-c3ccccc3F)nc2c1C` [Ex. 5.121] are 43 nM and 56 nM.
With `Cc1ccc2[nH]c([C@]3(C)CCCN3C(=O)c3ccccc3-c3ccc(F)cc3)nc2c1C` [Ex. 5.122], the half-inhibitory concentration (IC50) was 74 nM on human orexin-2 receptor and 99 nM on human orexin-1 receptor.
On the same counts, the results for `C[C@@]1(c2nc3cc(F)c(Br)cc3[nH]2)CCCN1C(=O)c1c(F)cccc1-n1nccn1` [Ex. 5.123] are 304 nM and 146 nM.
Consider `Cc1ccc(-n2nccn2)c(C(=O)N2CCC[C@@]2(C)c2nc3cc(F)c(Br)cc3[nH]2)c1F` [Ex. 5.124], for which the values for the IC50 at human orexin-2 receptor and at human orexin-1 receptor were 411 nM and 113 nM, respectively.
On the same counts, the results for `COc1cc(C(=O)N2CCC[C@@]2(C)c2nc3cc(F)c(Br)cc3[nH]2)c(-n2nccn2)cc1OC` [Ex. 5.125] are 126 nM and 84 nM.
For `Cc1cc(C(=O)N2CCC[C@@]2(C)c2nc3cc(F)c(Br)cc3[nH]2)c(-n2nccn2)cc1C` [Ex. 5.127] the same measures were 6 nM and 1 nM.
As to `Cc1ccc(-n2cccn2)c(C(=O)N2CCC[C@@]2(C)c2nc3cc(F)c(Br)cc3[nH]2)c1` [Ex. 5.128], the IC50 is 219 nM at human orexin-2 receptor and 20 nM at human orexin-1 receptor.
As for `C[C@@]1(c2nc3cc(F)c(Br)cc3[nH]2)CCCN1C(=O)c1cc(Cl)ccc1-n1nccn1` [Ex. 5.129], the values for the IC50 at human orexin-2 receptor and at human orexin-1 receptor were 62 nM and 20 nM, respectively.
For `Cc1ccc(C(=O)N2CCC[C@@]2(C)c2nc3cc(F)c(Br)cc3[nH]2)c(-n2nccn2)c1` [Ex. 5.130] the same measures were 58 nM and 24 nM.
For `Cc1ccc(-n2nccn2)c(C(=O)N2CCC[C@@]2(C)c2nc3cc(F)c(Br)cc3[nH]2)n1` [Ex. 5.131] the same measures were 178 nM and 15 nM.
On the same counts, the results for `COc1ccc(-n2nccn2)c(C(=O)N2CCC[C@@]2(C)c2nc3cc(F)c(Br)cc3[nH]2)c1F` [Ex. 5.132] are 615 nM and 54 nM.
Regarding `C[C@@]1(c2nc3cc(C(F)(F)F)c(Cl)cc3[nH]2)CCCN1C(=O)c1c(F)cccc1-n1nccn1` [Ex. 5.133], the values for the IC50 at human orexin-2 receptor and at human orexin-1 receptor were 45 nM and 11 nM, respectively.
On the same counts, the results for `Cc1ccc(-n2nccn2)c(C(=O)N2CCC[C@@]2(C)c2nc3cc(C(F)(F)F)c(Cl)cc3[nH]2)c1F` [Ex. 5.134] are 20 nM and 8 nM.
On the same counts, the results for `COc1cc(C(=O)N2CCC[C@@]2(C)c2nc3cc(C(F)(F)F)c(Cl)cc3[nH]2)c(-n2nccn2)cc1OC` [Ex. 5.135] are 49 nM and 10 nM.
On the same counts, the results for `C[C@@]1(c2nc3cc(C(F)(F)F)c(Cl)cc3[nH]2)CCCN1C(=O)c1cc(F)ccc1-n1nccn1` [Ex. 5.136] are 35 nM and 6 nM.
With `Cc1ccc(-n2cccn2)c(C(=O)N2CCC[C@@]2(C)c2nc3cc(C(F)(F)F)c(Cl)cc3[nH]2)c1` [Ex. 5.138], the IC50 at human orexin-2 receptor is 10 nM; on human orexin-1 receptor it was 2 nM.
On the same counts, the results for `C[C@@]1(c2nc3cc(C(F)(F)F)c(Cl)cc3[nH]2)CCCN1C(=O)c1cc(Cl)ccc1-n1nccn1` [Ex. 5.139] are 21 nM and 2 nM.
On the same counts, the results for `Cc1ccc(C(=O)N2CCC[C@@]2(C)c2nc3cc(C(F)(F)F)c(Cl)cc3[nH]2)c(-n2nccn2)c1` [Ex. 5.140] are 28 nM and 5 nM.

As usually defined, the IC50 is the concentration that gives 50% inhibition.
